This is an account of results in PMC2063203, “The renal effects of the water-soluble, non-folylpolyglutamate synthetase-dependent thymidylate synthase inhibitor ZD9331 in mice” (British Journal of Cancer, 1998).

As a reminder, the solubility is the dissolved amount per volume that the medium holds. Low readings indicate little dissolved substance, high ones much dissolved substance.

≈ marks a conversion by molar mass, not a printed value. Read-outs that look alike come from different tables or passages of the source.

One series has as its system DBA-2 mice. Put plainly: Kidney histology (H & E) and immunohistochemical staining for ZD9331. The class given is in vivo.
A short description of a further series: Aqueous solubility. The class given is physicochemical.
For a further series, the system named is L5178Y (TK-/-) lymphoma. The arrangement: method as in Stephens et al, 1994; Jackman et al, 1997. Conditions: ref Stephens et al, 1994, Jackman et al, 1997, cited from earlier work.

For `C#CCN(Cc1cc2c(=O)[nH]c(C)nc2cc1C)c1ccc(C(=O)N[C@@H](CCc2nnn[nH]2)C(=O)O)c(F)c1` [ZD9331, (2S)-2-{O-fluoro-p-(N-(2,7-dimethyl-4-oxo-3,4-dihydroquinazolin-6-ylmethyl)-N-(prop-2-ynyl)amino}benzamido}-4-(tetrazol-5-yl)butyric acid], the renal histology result in the series with DBA-2 mice (200 mg kg-1 i.v., 4 h after) is “evidence of tubular dilatation (Figure SB), with the presence of fine granular casts in the tubules”; with DBA-2 mice (lower drug doses), “some tubular dilatation”. For the same compound, the “drug distribution in kidney tissue (histology with immunohistochemical staining)” value in the series on DBA-2 mice (200 mg kg-1 i.v., data not shown) is recorded as “uniform drug distribution in tissue with no evidence of drug precipitation”. For the same compound, the solubility in “Aqueous solubility” (pH 5.3, aqueous buffer) is 0.1 mM (≈ 53.3 µg/mL); in the series “Aqueous solubility” (pH 7.4, aqueous buffer), 8 mM (≈ 4260 µg/mL). In addition, the anti-tumour activity entry in the series on L5178Y (TK-/-) lymphoma (24-h s.c. infusion, 3 mg kg-1) is recorded as “anti-tumour activity”; in the series on L5178Y (TK-/-) lymphoma (bolus administration, 50 mg kg-1), “anti-tumour activity”.
